In ChEMBL document CHEMBL5528040, “Design and Synthesis of Novel 3-Nitro-1H-1,2,4-triazole-1,2,3-triazole-1,4-disubstituted Analogs as Promising Antitrypanosomatid Agents: Evaluation of In Vitro Activity against Chagas Disease and Leishmaniasis” (J Med Chem, 2024):

Tests used:
[1] = Mutagenicity in Salmonella typhimurium TA102 assessed as number of revertant colonies at 150 ug per plate incubated for 90 mins by AMES test (reference value: 110.67 +/- 20.15); assay type: toxicity, Salmonella enterica subsp. enterica serovar Typhimurium; details: in vivo, 1.5 h, dose 150 µg
[2] = Mutagenicity in Salmonella typhimurium TA98 assessed as mutagenic index ratio at 150 ug per plate incubated for 90 mins by AMES test; assay type: toxicity, Salmonella enterica subsp. enterica serovar Typhimurium; details: in vivo, 1.5 h, dose 150 µg
[3] = Mutagenicity in Salmonella typhimurium TA100 assessed as mutagenic index ratio at 150 ug per plate incubated for 90 mins in presence of S9 fraction by AMES test; assay type: toxicity, subcellular, Salmonella enterica subsp. enterica serovar Typhimurium; details: s9, 1.5 h, dose 150 µg
[4] = Mutagenicity in Salmonella typhimurium TA100 assessed as number of revertant colonies at 5000 ug per plate incubated for 90 mins in presence of S9 fraction by AMES test (reference value: 122.67 +/- 5.03); assay type: toxicity, subcellular, Salmonella enterica subsp. enterica serovar Typhimurium; details: s9, 1.5 h, dose 5000 µg
[5] = Mutagenicity in Salmonella typhimurium TA102 assessed as number of revertant colonies at 150 ug per plate incubated for 90 mins in presence of S9 fraction by AMES test (reference value: 130.00 +/- 6.93); assay type: toxicity, subcellular, Salmonella enterica subsp. enterica serovar Typhimurium; details: s9, 1.5 h, dose 150 µg
[6] = Mutagenicity in Salmonella typhimurium TA98 assessed as number of revertant colonies at 500 ug per plate incubated for 90 mins by AMES test (reference value: 22.67 +/- 0.58); assay type: toxicity, Salmonella enterica subsp. enterica serovar Typhimurium; details: in vivo, 1.5 h, dose 500 µg
[7] = Mutagenicity in Salmonella typhimurium TA102 assessed as mutagenic index ratio at 50 ug per plate incubated for 90 mins by AMES test; assay type: toxicity, Salmonella enterica subsp. enterica serovar Typhimurium; details: in vivo, 1.5 h, dose 50 µg
[8] = Mutagenicity in Salmonella typhimurium TA102 assessed as number of revertant colonies at 1500 ug per plate incubated for 90 mins by AMES test (reference value: 110.67 +/- 20.15); assay type: toxicity, Salmonella enterica subsp. enterica serovar Typhimurium; details: in vivo, 1.5 h, dose 1500 µg
[9] = Mutagenicity in Salmonella typhimurium TA102 assessed as mutagenic index ratio at 1500 ug per plate incubated for 90 mins in presence of S9 fraction by AMES test; assay type: toxicity, subcellular, Salmonella enterica subsp. enterica serovar Typhimurium; details: s9, 1.5 h, dose 1500 µg
[10] = Mutagenicity in Salmonella typhimurium TA102 assessed as number of revertant colonies at 5000 ug per plate incubated for 90 mins by AMES test (reference value: 110.67 +/- 20.15); assay type: toxicity, Salmonella enterica subsp. enterica serovar Typhimurium; details: in vivo, 1.5 h, dose 5000 µg
[11] = Mutagenicity in Salmonella typhimurium TA98 assessed as mutagenic index ratio at 5000 ug per plate incubated for 90 mins in presence of S9 fraction by AMES test; assay type: toxicity, subcellular, Salmonella enterica subsp. enterica serovar Typhimurium; details: s9, 1.5 h, dose 5000 µg
[12] = Mutagenicity in Salmonella typhimurium TA98 assessed as number of revertant colonies at 50 ug per plate incubated for 90 mins by AMES test (reference value: 22.67 +/- 0.58); assay type: toxicity, Salmonella enterica subsp. enterica serovar Typhimurium; details: in vivo, 1.5 h, dose 50 µg
[13] = Mutagenicity in Salmonella typhimurium TA98 assessed as mutagenic index ratio at 150 ug per plate incubated for 90 mins in presence of S9 fraction by AMES test; assay type: toxicity, subcellular, Salmonella enterica subsp. enterica serovar Typhimurium; details: s9, 1.5 h, dose 150 µg
[14] = Mutagenicity in Salmonella typhimurium TA102 assessed as number of revertant colonies at 500 ug per plate incubated for 90 mins by AMES test (reference value: 110.67 +/- 20.15); assay type: toxicity, Salmonella enterica subsp. enterica serovar Typhimurium; details: in vivo, 1.5 h, dose 500 µg
[15] = Selectivity index, ratio of CC50 for cytotoxicity against monkey LLC-MK2 cells to IC50 for antitrypanosomal activity against Trypanosoma cruzi Tulahuen amastigotes transfected with Escherichia coli beta-galactosidase LacZ gene infected in monkey LLC-MK2 cells; assay type: toxicity, cell-based; details: read-out: Ratio CC50/IC50
[16] = Mutagenicity in Salmonella typhimurium TA102 assessed as mutagenic index ratio at 5000 ug per plate incubated for 90 mins in presence of S9 fraction by AMES test; assay type: toxicity, subcellular, Salmonella enterica subsp. enterica serovar Typhimurium; details: s9, 1.5 h, dose 5000 µg
[17] = Mutagenicity in Salmonella typhimurium TA100 assessed as mutagenic index ratio at 50 ug per plate incubated for 90 mins by AMES test; assay type: toxicity, Salmonella enterica subsp. enterica serovar Typhimurium; details: in vivo, 1.5 h, dose 50 µg
[18] = Mutagenicity in Salmonella typhimurium TA100 assessed as number of revertant colonies at 150 ug per plate incubated for 90 mins by AMES test (reference value: 88.00 +/- 2.65); assay type: toxicity, Salmonella enterica subsp. enterica serovar Typhimurium; details: in vivo, 1.5 h, dose 150 µg
[19] = Mutagenicity in Salmonella typhimurium TA98 assessed as number of revertant colonies at 50 ug per plate incubated for 90 mins in presence of S9 fraction by AMES test (reference value: 21.00 +/- 1.00); assay type: toxicity, subcellular, Salmonella enterica subsp. enterica serovar Typhimurium; details: s9, 1.5 h, dose 50 µg
[20] = Mutagenicity in Salmonella typhimurium TA100 assessed as number of revertant colonies at 1500 ug per plate incubated for 90 mins in presence of S9 fraction by AMES test (reference value: 122.67 +/- 5.03); assay type: toxicity, subcellular, Salmonella enterica subsp. enterica serovar Typhimurium; details: s9, 1.5 h, dose 1500 µg
[21] = Mutagenicity in Salmonella typhimurium TA100 assessed as mutagenic index ratio at 1500 ug per plate incubated for 90 mins in presence of S9 fraction by AMES test; assay type: toxicity, subcellular, Salmonella enterica subsp. enterica serovar Typhimurium; details: s9, 1.5 h, dose 1500 µg
[22] = Mutagenicity in Salmonella typhimurium TA102 assessed as mutagenic index ratio at 5000 ug per plate incubated for 90 mins by AMES test; assay type: toxicity, Salmonella enterica subsp. enterica serovar Typhimurium; details: in vivo, 1.5 h, dose 5000 µg
[23] = Mutagenicity in Salmonella typhimurium TA100 assessed as mutagenic index ratio at 500 ug per plate incubated for 90 mins by AMES test; assay type: toxicity, Salmonella enterica subsp. enterica serovar Typhimurium; details: in vivo, 1.5 h, dose 500 µg
[24] = Mutagenicity in Salmonella typhimurium TA102 assessed as number of revertant colonies at 500 ug per plate incubated for 90 mins in presence of S9 fraction by AMES test (reference value: 130.00 +/- 6.93); assay type: toxicity, subcellular, Salmonella enterica subsp. enterica serovar Typhimurium; details: s9, 1.5 h, dose 500 µg
[25] = Mutagenicity in Salmonella typhimurium TA102 assessed as mutagenic index ratio at 150 ug per plate incubated for 90 mins by AMES test; assay type: toxicity, Salmonella enterica subsp. enterica serovar Typhimurium; details: in vivo, 1.5 h, dose 150 µg
[26] = Mutagenicity in Salmonella typhimurium TA100 assessed as number of revertant colonies at 150 ug per plate incubated for 90 mins in presence of S9 fraction by AMES test (reference value: 122.67 +/- 5.03); assay type: toxicity, subcellular, Salmonella enterica subsp. enterica serovar Typhimurium; details: s9, 1.5 h, dose 150 µg
[27] = Substrate activity at Trypanosoma cruzi type I nitro reductase assessed as reduction in NADH incubated for 120 sec by spectrophotometric analysis
[28] = Mutagenicity in Salmonella typhimurium TA100 assessed as mutagenic index ratio at 50 ug per plate incubated for 90 mins in presence of S9 fraction by AMES test; assay type: toxicity, subcellular, Salmonella enterica subsp. enterica serovar Typhimurium; details: s9, 1.5 h, dose 50 µg
[29] = Mutagenicity in Salmonella typhimurium TA100 assessed as mutagenic index ratio at 1500 ug per plate incubated for 90 mins by AMES test; assay type: toxicity, Salmonella enterica subsp. enterica serovar Typhimurium; details: in vivo, 1.5 h, dose 1500 µg
[30] = Mutagenicity in Salmonella typhimurium TA98 assessed as number of revertant colonies at 5000 ug per plate incubated for 90 mins in presence of S9 fraction by AMES test (reference value: 21.00 +/- 1.00); assay type: toxicity, subcellular, Salmonella enterica subsp. enterica serovar Typhimurium; details: s9, 1.5 h, dose 5000 µg
[31] = Mutagenicity in Salmonella typhimurium TA102 assessed as number of revertant colonies at 1500 ug per plate incubated for 90 mins in presence of S9 fraction by AMES test (reference value: 130.00 +/- 6.93); assay type: toxicity, subcellular, Salmonella enterica subsp. enterica serovar Typhimurium; details: s9, 1.5 h, dose 1500 µg
[32] = Mutagenicity in Salmonella typhimurium TA98 assessed as mutagenic index ratio at 50 ug per plate incubated for 90 mins in presence of S9 fraction by AMES test; assay type: toxicity, subcellular, Salmonella enterica subsp. enterica serovar Typhimurium; details: s9, 1.5 h, dose 50 µg

Which Activity [1] does the source give for O=[N+]([O-])c1ncn(Cc2cn(-c3ccc(OC(F)(F)F)cc3)nn2)n1 here?
The Activity was 159.33.

What about the Ratio [2] of the same molecule?
The Ratio was 1.

And the Ratio [3]?
The Ratio was 0.9.

What about the Activity [4] of the same molecule?
The Activity was 47.

And the Activity [5]?
The Activity was 172.33.

And the Activity [6]?
The Activity was 21.33.

What about the Ratio [7] of the same molecule?
The Ratio was 1.9.

What about the Activity [8] of the same molecule?
Its Activity is 141.

What about the Ratio [9] of the same molecule?
Its Ratio is 1.3.

And the Activity [10]?
The Activity was 143.67.

What about the Ratio [11] of the same molecule?
The Ratio was 0.7.

What about the Activity [12] of the same molecule?
Its Activity is 18.33.

And the Ratio [13]?
Its Ratio is 1.1.

What about the Activity [14] of the same molecule?
The Activity was 159.67.

And the selectivity ratio [15]?
The selectivity ratio was over 556.

What about the Ratio [16] of the same molecule?
Its Ratio is 1.

What about the Ratio [17] of the same molecule?
The Ratio was 1.1.

What about the Activity [18] of the same molecule?
Its Activity is 96.

And the Activity [19]?
The Activity was 22.67.

What about the Activity [20] of the same molecule?
The Activity was 98.33.

And the Ratio [21]?
Its Ratio is 0.8.

What about the Ratio [22] of the same molecule?
The Ratio was 1.2.

What about the Ratio [23] of the same molecule?
The Ratio was 0.9.

What about the Activity [24] of the same molecule?
The Activity was 190.

What about the Ratio [25] of the same molecule?
Its Ratio is 1.4.

And the Activity [26]?
The Activity was 117.33.

What about the pIC50 [27] of the same molecule?
Its pIC50 is 7.04.

What about the Ratio [28] of the same molecule?
The Ratio was 0.9.

What about the Ratio [29] of the same molecule?
The Ratio was 0.9.

What about the Activity [30] of the same molecule?
The Activity was 15.33.

What about the Activity [31] of the same molecule?
Its Activity is 178.67.

What about the Ratio [32] of the same molecule?
The Ratio was 1.
